Assay results as given in publication PMC8069289 (Molecules, 2021).
“And” between values parts separate entries of the source, which are not always exact repeats. Equal values may be shown once.

Key:
[1] = test system: Drosophila melanogaster; experiment: Antitoxicity assay, combined treatment with 0.15 M H2O2; settings: 0.15 M hydrogen peroxide alone, positive toxicant control concurrent to each test substance
Description: Toxicity was assayed according to our standard protocols. CRB and SFRB were tested at five concentrations: 1, 4, 8.12, 32.5 and 130 mg/mL and 0.16, 0.625, 1.25, 5 and 20 mg/mL, respectively. […] Tested groups consisted of larvae fed with Drosophila Instant Medium (Formula 4–24, Carolina Biological Supply, Burlington, NC, USA) supplemented with the assessed compounds concentrations. Emerging adults of all groups were counted and toxicity was determined as the percentage of hatched individuals in each treatment compared with the negative control.

[2] = test system: Drosophila melanogaster; experiment: Genotoxicity, wing spot test (SMART); settings: H2O2 0.15 M, positive control
Description: The wing spot test was performed to evaluate genotoxicity assays following the standard procedure [14]. Briefly, trans-heterozygous larvae for mwh and flr^3 genes were obtained by crossing four day-old virgin flr^3 females with mwh males in a 2:1 ratio. Four days after fertilization, females were allowed to lay eggs in fresh yeast medium (25 g yeast and 4 mL sterile distilled water) for 8 h in order to obtain synchronized larvae. After 72 h, larvae were collected, washed with distilled water, and clustered in groups of 100 individuals. […] Adult flies were collected and stored in 70% ethanol until the wings were removed and mounted on slides using Faure’s solution. Mutant spots were assessed in both dorsal and ventral surfaces of the wings in a bright light microscope at 400× magnification. The frequencies of each type of mutant clone per wing (single, large or twin spot) were compared with the concurrent negative control [43]. All inconclusive and positive results (p > 0.05) were analysed with the nonparametric U-test of Mann, Whitney and Wilcoxon (α = β = 0.05).

OO [H2O2, hydrogen peroxide, reference compound]
Survival (%) [1]: 60% and 38.46% and 58%
Twin Spots m = 5 [2]: 0 clones per wing
Large Simple Spots (>2 Cells) m = 5 ([2]; No. of spots in parentheses): 0.05 (2) clones per wing
Small Single Spots (1–2 Cells) m = 2 ([2]; No. of spots in parentheses): 0.375 (15) clones per wing
Total Spots m = 2 ([2]; No. of spots in parentheses): 0.425 (17) clones per wing
